The results in this text go back to paper PMC9861858, “Stereoselective Synthesis and Antiproliferative Activities of Tetrafunctional Diterpene Steviol Derivatives” (International Journal of Molecular Sciences, 2023).

The structures appear in SMILES notation. In brackets after ≈: the same amount, converted by molar mass. Entries after “also recorded” stand apart in the source; their conditions may differ.

The subject of series [1] is MCF-7 cells. In words: MTT antiproliferative assay, MCF-7. To be noted: for Antiproliferative effect / selectivity on MCF-7, in words: 10 and 30 μM; for inhibition at 10 µM / inhibition at 30 µM: Homo sapiens, 72 h, values <20% considered negligible, read-out: Growth inhibition (%) ± SEM, MCF-7; for inhibition at 10 µM: MCF7, 10 μM; for inhibition at 30 µM: MCF7, 30 μM. The class given is cell-based, human. As to the method: (§1) The in vitro antiproliferative activities of the synthesised aminotriols 5–18 against a panel of different human cancer cell lines of gynecological origin, including cervical (SiHA and HeLa), breast (MCF7 and MDA-MB-231), ovary (A2780) cancers and NIH/3T3 healthy fibroblasts, were assayed by the MTT method. Cisplatin, a clinically applied anticancer agent was used as a reference compound, and the results are summarised in Figure 3 and Table S1 in the Supplementary Materials.
(§2) The growth-inhibitory effects of the presented terpenes were determined by a standard MTT [3-(4,5-dimethylthiazol2-yl)-2,5-diphenyltetrazolium bromide] assay against […] human cancer cell lines (cervical cancer HeLa and SiHa cell lines, breast cancer MCF-7 and MDA-MB-231 and ovarian cancer A2780). Murine embryonal fibroblast cells (NIH/3T3) were used to determine selectivity. All cell lines were purchased from the European Collection of Cell Cultures (Salisbury, UK). The cells were cultivated in Eagle’s minimal essential medium supplemented with 10% fetal bovine serum, 1% non-essential amino acids, and 1% Antibiotic-Antimycotic complex (penicillin, streptomycin, amphotericin B) at 37 °C in a humidified atmosphere containing 5% CO2. All media and supplements were purchased from Lonza Group Ltd. (Basel, Switzerland). Cancer cells were seeded into 96-well plates (5000 cells/well) after an overnight incubation, and the test compounds were added at two different concentrations (10 μM and 30 μM) and incubated for another 72 h under cell-culturing conditions. Finally, 20 μL of a 5 mg/mL MTT solution was added to each well, and the contents were incubated for a further 4 h. The medium was removed, and the precipitated formazan crystals were dissolved in DMSO by shaking at 37 °C for 60 min. The absorbance was measured at 545 nm by using a microplate reader (SPECTROStar Nano, BMG Labtech, Offenburg, Germany). Clinically utilised anticancer agent cisplatin (Ebewe GmbH, Unterach, Austria) was included as a reference molecule. Calculations were performed using the GraphPad Prism 9 software (GraphPad Software Inc., San Diego, CA, USA).

Series [2] has as its system HeLa cells. Nature of the series: MTT antiproliferative assay, HeLa. To be noted: Homo sapiens, HeLa, 72 h, values <20% considered negligible, read-out: Growth inhibition (%) ± SEM, HeLa. It is filed as cell-based, human. As for the experimental part: as §1, §2
Series [3] relates to A2780 cells. Nature of the series: MTT antiproliferative assay, A2780. To be noted: for Antiproliferative effect on A2780, in words: 10 and 30 μM; for inhibition at 10 µM / inhibition at 30 µM: Homo sapiens, 72 h, values <20% considered negligible, read-out: Growth inhibition (%) ± SEM, A2780; for inhibition at 10 µM: A2780, 10 μM; for inhibition at 30 µM: A2780, 30 μM. The class given is cell-based, human. As for the experimental part: as §1, §2

Series [4] concerns NIH/3T3 fibroblasts. In words: MTT assay on fibroblasts (selectivity). The class given is cell-based, murine. To be noted: Mus musculus, 72 h, values <20% considered negligible, read-out: Growth inhibition (%) ± SEM, NIH/3T3; for inhibition at 10 µM: NIH3T3, 10 μM; for inhibition at 30 µM: NIH3T3, 30 μM. As for the experimental part:
as §1, §2

The nature of series [5]: Intestinal-specific parallel artificial membrane permeability assay (PAMPA-GI). It is filed as in vitro ADME. The note with it: gradient pH system (pH donor 6.5 → pH acceptor 7.4) after 4 h, at 37 °C, mean ± S.E.M, n = 3; for Papp at 4 h, 500 µM: PAMPA, read-out: PAMPA-GI Pe. As to the method:
(§3) Filtrates and calibration solutions (5–500 μ M) of the kinetic solubility study and starting donor and acceptor solutions of the PAMPA-GI study were investigated by HPLC-DAD-MS. LC-MS analysis was performed using a Waters 2795 HPLC with a Waters 2487 DAD detector coupled with a Micromass Quattro Ultima TMPt quadrupol mass spectrometer equipped with an ESI source. Measurements were performed on a Waters XSelect C18 (150 × 4.6 mm; 3.5 μm) column with a […] eluent flow rate and the temperature set at 40 °C. The composition of eluent A was MilliQ water with 0.1% formic acid, and that of eluent B was an acetonitrile and MilliQ water mixture (95:5, v/v), also with 0.1% formic acid. The following linear gradient program was used: 0–6 min, 10–100% B; this was held for 3 min, then from 9.01 min on, back to the starting composition of 10% B–90% A. The injection volume was 10 μL for each sample. Chromatographic profiles were registered at dual wavelength, 220 and 240 nm. The mass spectrometer was used in negative ion mode for samples 2, 3 and 4b, and in positive ion mode for other samples. The operating parameters of the MS were: Mass range of m/z 150–700. Nitrogen gas flow rate was 350 L/h, temperature of 350 °C and pressure of 6 bar. The quadrupol temperature was 120 °C, and the capillary voltage was 2.5 kV. Fragmentor’s voltage of 60 V.
(§4) Intestinal (GI) permeability was determined by using an intestinal-specific parallel artificial membrane permeability assay (PAMPA-GI [36]]). […] All solutions were filtered by MultiScreen HTS Vacuum Manifold (Merck Ltd., Budapest, Hungary) after the incubation period. The target concentration was 500 μM for every sample investigated. The intestinal-specific effective permeability of the samples was determined by PAMPA-GI. To prepare starting solutions for a 96-well donor plate, 15 μLs of the 10 mM DMSO stock solution of investigation compounds and 285 μL pH 6.5 phosphate buffer solution were mixed. These solutions were left in a shaking incubator (300 rpm) at 25 °C for 1 h. Meanwhile, a 96-well acceptor plate was filled with 300 μL of pH 7.4 PBS buffer solution containing 5% DMSO. The intestinal-specific artificial membrane was prepared the following way: the hydrophobic filter material of the donor plate was coated with a mixture of phosphatidylcholine/cholesterol = 2:1 (5 μL, 4 % (w/v) in dodecane). After that, all donor wells were filled with 150 μL of the starting donor solutions, and they were carefully placed on the acceptor plate and incubated at 37 °C for 4 h. After the end of the incubation period the donor and acceptor plates were separated carefully. A total of 150 μL of the donor, acceptor and the starting donor solutions were sampled and analysed with HPLC-DAD-MS. The effective permeability and membrane retention of drugs were calculated using the following equations: Pe=−2.303/A·(t−τss)·1/1+rv·lg[−rv+(1+rv/1−MR)·]CD(t)/CD(0) MR=1−CD(t)/CD(0)−VA·CA(t)/VD·CD(0) where Pe is the effective permeability coefficient (cm/s), A is the filter area (0.3 cm^2), VD and VA are the volumes in the donor (0.15 cm^3) and acceptor phase (0.3 cm^3), t is the incubation time (s), τSS is the time to reach steady-state (s), CD(t) is the concentration of the compound in the donor phase at time point t (mol/cm^3), CD(0) is the concentration of the compound in the donor phase at time point zero (mol/cm^3), rv is the aqueous compartment volume ratio (VD/VA), MR is the membrane retention factor.

Series [6] can be described thus: Kinetic aqueous solubility. The class given is physicochemical. To be noted: phosphate buffered saline with 5% DMSO, aqueous with cosolvent or surfactant or cyclodextrin, kinetic from dmso stock; after 2 h, at 37 °C in PBS, pH 7.4, 5% DMSO; target concentration 500 μM; mean ± S.E.M, n = 3. As to the method:
as §3, §4

For series [7], the system named is MDA-MB-231 cells. In words: MTT antiproliferative assay, MDA-MB-231. To be noted: for Antiproliferative effect / selectivity on MDA-MB-231, in words: 10 and 30 μM; for inhibition at 10 µM / inhibition at 30 µM: Homo sapiens, 72 h, values <20% considered negligible, read-out: Growth inhibition (%) ± SEM, MDA-MB-231; for inhibition at 10 µM: MDA-MB-231, 10 μM; for inhibition at 30 µM: MDA-MB-231, 30 μM. It is filed as cell-based, human. As for the experimental part:
as §1, §2

The test system of series [8] is SiHa cells. In words: MTT antiproliferative assay, SiHa. The class given is cell-based, human. The note with it: Homo sapiens, SiHa, 72 h, values <20% considered negligible, read-out: Growth inhibition (%) ± SEM, SiHa. As for the experimental part: as §1, §2

In turn, `COC(=O)[C@]1(C)CCC[C@@]2(C)C3CC[C@]4(O)C[C@@]3(CCC21)[C@@H](O)[C@]4(O)CN[C@H](C)c1ccccc1` (stereo partly drawn) [Compound 7, (4R,6aR,7R,8R,9S,11bS)-Methyl 7,8,9-Trihydroxy-4,11b-dimethyl-8-((((R)-1-phenylethyl)amino)methyl)tetradecahydro-6a,9-methanocyclohepta[a]naphthalene-4-carboxylate] had a melting point of 84 to 87 °C. For the same molecule, in series [1], the “Antiproliferative effect / selectivity on MCF-7, in words” value is reported as “slightly weaker action”; the inhibition at 10 µM was 62.8 ± 1.05%; the inhibition at 30 µM worked out at 97.69 ± 0.38%. In series [2], the inhibition at 10 µM amounted to 33.7 ± 0.93% and the inhibition at 30 µM was 97.76 ± 0.25%. Also, in [3], the “Antiproliferative effect on A2780, in words” value is reported as “slightly weaker action”; the inhibition at 10 µM amounted to 52.9 ± 1.83%; the inhibition at 30 µM was found to be 98.14 ± 0.36%. In [4], the inhibition at 10 µM turned out to be 35.8 ± 4.12% and the inhibition at 30 µM turned out to be 100.5 ± 0.37%. For the same molecule, in series [5], the Papp at 4 h, 500 µM worked out at 0.64 ± 0.07 ×10⁻⁶ cm/s and the “PAMPA-GI MR (membrane retention)” value amounted to 28.8 ± 5.8%. The solubility (kinetic) at 2 h in series [6] amounted to 182 ± 3.2 µM (≈ 88.2 µg/mL). Also, in series [7], the “Antiproliferative effect / selectivity on MDA-MB-231, in words” value is on record as “noteworthy selectivity”; the inhibition at 10 µM turned out to be 88.05 ± 0.59%; the inhibition at 30 µM came to 94.56 ± 0.63%. For the same molecule, in series [8], the inhibition at 10 µM is under 20% and the inhibition at 30 µM was found to be 94.56 ± 0.54%.
With `COC(=O)[C@]1(C)CCC[C@@]2(C)C3CC[C@]4(O)C[C@@]3(CCC21)[C@@H](O)[C@]4(O)CN[C@@H](C)c1ccccc1` (stereo partly drawn) [Compound 8, (4R,6aR,7R,8R,9S,11bS)-Methyl 7,8,9-Trihydroxy-4,11b-dimethyl-8-((((S)-1-phenylethyl)amino)methyl)tetradecahydro-6a,9-methanocyclohepta[a]naphthalene-4-carboxylate], the melting point lay in the range of 157 to 161 °C. Also, in series [1], the “Antiproliferative effect / selectivity on MCF-7, in words” value is reported as “slightly weaker action”; the inhibition at 10 µM is 74 ± 2.14%; the inhibition at 30 µM was determined as 96.04 ± 0.32%. Also, in series [2], the inhibition at 10 µM was under 20% and the inhibition at 30 µM turned out to be 96.19 ± 0.25%. In [3], the “Antiproliferative effect on A2780, in words” value is on record as “slightly weaker action”; the inhibition at 10 µM was 59.9 ± 3.03%; the inhibition at 30 µM is 97.45 ± 0.36%. In series [4], the inhibition at 10 µM is 58.8 ± 1.41% and the inhibition at 30 µM came to 103.2 ± 0.33%. In [5], the Papp at 4 h, 500 µM came to 0.58 ± 0.01 ×10⁻⁶ cm/s and the “PAMPA-GI MR (membrane retention)” value is recorded as 42.6 ± 3.9%. The same molecule displayed a solubility (kinetic) at 2 h in [6] of 131 ± 2.2 µM (≈ 63.8 µg/mL). For the same molecule, in [7], the “Antiproliferative effect / selectivity on MDA-MB-231, in words” value was “noteworthy selectivity”; the inhibition at 10 µM worked out at 84.3 ± 2.78%; the inhibition at 30 µM came to 95.62 ± 0.92%. Further, in series [8], the inhibition at 10 µM is under 20% and the inhibition at 30 µM was 95.09 ± 0.69%.
Regarding `COC(=O)[C@]1(C)CCC[C@@]2(C)C3CC[C@]4(O)C[C@@]3(CCC21)[C@@H](O)[C@]4(O)CNCc1ccc(OC)cc1` (stereo partly drawn) [Compound 10, (4R,6aR,7R,8R,9S,11bS)-Methyl 7,8,9-Trihydroxy-8-(((4-methoxybenzyl)amino)methyl)-4,11b-dimethyltetradecahydro-6a,9-methanocyclohepta[a]naphthalene-4-carboxylate], the melting point fell in the range of 161 to 163 °C. Further, in series [1], the “Antiproliferative effect / selectivity on MCF-7, in words” value was “higher selectivity; also recorded: performed best”; the inhibition at 10 µM came out at 74.3 ± 2.62%; the inhibition at 30 µM amounted to 95.66 ± 0.76%. Further, in [2], the inhibition at 10 µM amounted to 27.8 ± 1.05% and the inhibition at 30 µM was 96.06 ± 0.93%. Further, in series [3], the inhibition at 10 µM was under 20% and the inhibition at 30 µM was 96.79 ± 0.25%. In addition, in series [4], the inhibition at 10 µM was under 20% and the inhibition at 30 µM was found to be 90.9 ± 1.17%. In addition, in series [5], the Papp at 4 h, 500 µM came to 0.37 ± 0.11 ×10⁻⁶ cm/s and the “PAMPA-GI MR (membrane retention)” value amounted to 6.1 ± 1.1%. The kinetic solubility at 2 h in [6] was 143 ± 26.8 µM (≈ 71.7 µg/mL). Also, in series [7], the inhibition at 10 µM turned out to be 37.8 ± 2.27% and the inhibition at 30 µM came to 93.42 ± 0.56%. Further, in [8], the inhibition at 10 µM was 24.1 ± 1.39% and the inhibition at 30 µM came out at 94.64 ± 0.5%.
